Experiments:
[1] = molecular target: T1, Hordeum HPPD (SEQ ID: 2) L320Q (Hordeum vulgare, UniProt O48604, A164G/L320Q/R146V/R147D/R148G); assay: HPPD activity assay, in vitro characterization of HPPD mutants; format: biochemical; conditions: Table 16, Hordeum wild-type = 1
T1 construct: His (N); made in house; host or cells: E. coli BL21 (DE3)
Experimental: HPPD produces homogentisic acid and CO2 from 4-hydroxyphenylpyruvate (4-HPP) and 02. The activity assay for HPPD is based on the analysis of homogentisic acid by reversed phase HPLC. The assay mixture can contain 150 mM potassium phosphate buffer pH 7.0, 50 mM L-ascorbic acid, 100 μM Catalase (Sigma-Aldrich), 1 μM FeSO4 and 0.2 units of purified HPPD enzyme in a total volume of 505 μl. 1 unit is defined as the amount of enzyme that is required to produce 1 nmol of HGA per minute at 20° C.
After a preincubation of 30 min the reaction is started by adding 4-HPP to a final concentration of 0.05 mM. The reaction is allowed to proceed for 45 min at room temperature. The reaction is stopped by the addition of 50 μl of 4.5 M phosphoric acid. The sample is filtered using a […] pore size PVDF filtration device.
5 μl of the cleared sample is analyzed on an UPLC HSS T3 column (particle size 1.8 μm, dimensions 2.1×50 mm; Waters) by isocratic elution using 90% 20 mM NaH2PO4 pH 2.2, 10% methanol (v/v).
HGA is detected electrochemically at 750 mV (mode: DC; polarity: positive) and quantified by integrating peak areas (Empower software; Waters).
Inhibitors are dissolved in DMSO (dimethylsulfoxide) to a concentration of 0.5 mM. From this stock solution serial five-fold dilutions are prepared in DMSO, which are used in the assay. The respective inhibitor solution accounts for 1% of the assay volume. […] Activities are normalized by setting the uninhibited enzyme activity to 100%. IC50 values are calculated using non-linear regression.
Purified, mutant HPPD enzymes are obtained by the methods described above. Dose response and kinetic measurements are carried out using the described HPPD activity assay. Apparent michaelis constants (Km) and maximal reaction velocities (Vmax) are calculated by non-linear regression with the software GraphPad Prism 5 (Graph Pad Software, La Jolla, USA) using a substrate inhibition model. […] Weighted means (by standard error) of Km and IC50 values are calculated from at least three independent experiments.
Field performance of the optimized HPPD enzyme, which is used as a herbicide tolerance trait may depend not only on its lack of sensitivity towards HPPD inhibiting herbicides but also on its activity. To assess the potential performance of a herbicide tolerance trait a tolerance index (TI) is calculated using the following formula: […]
Easy comparison and ranking of each trait is enabled by normalizing tolerance indexes on Arabidopsis wild-type HPPD.

[2] = tested on: Arabidopsis overexpression line AtHPPD (Seq ID: 53); assay: Arabidopsis growth inhibition in 48-well plates, tolerance factor; format: in vivo, Arabidopsis thaliana; conditions: plant growth IC50 of transgenic / wild-type plants
Source text: Rows A-F are individual events. Non-transformed control plants are marked as wild-type (WT). The HPPD-inhibiting herbicide used refers to (NE)-8-chloro-N-(4-methoxy-1,2,5-oxadiazol-3-ylidene)-4,4-dimethyl-1,1-dioxo-2,3-dihydrothiochromene-7-carboxamide
(§1) Arabidopsis thaliana is transformed with HPPD or HST sequences by floral dip method as described by McElver and Singh (WO 2008/124495). Transgenic Arabidopsis plants are subjected to TaqMan analysis for analysis of the number of integration loci.
Depending on the species, the plants are kept at 10-25° C. or 20-35° C. The test period extends over 3 weeks. During this time, the plants are tended and their response to the individual treatments is evaluated. Herbicide injury evaluations are taken at 2 and 3 weeks after treatment. Plant injury is rated on a scale of 0 to 9, 0 being no injury and 9 being complete death. Tolerance to HPPD-inhibiting herbicides can also be assessed in Arabidopsis. In this case transgenic Arabidopsis thaliana plants are assayed for improved tolerance to HPPD-inhibiting herbicides in 48-well plates. […] Seven to ten days after seeding growth inhibition is evaluated by comparison to wild-type plants. Tolerance factor is calculated by dividing the plant growth IC50 value of transgenic plants containing a HPPD and/or HST sequence by that of wild-type plants.

[3] = tested on: Arabidopsis overexpression line AtHPPD (Seq ID: 53) F381I; assay: as above; format: in vivo, Arabidopsis thaliana; conditions: plant growth IC50 of transgenic / wild-type plants
Experimental: as §1
(§2) Depending on the species, the plants are kept at 10-25° C. or 20-35° C. The test period extends over 3 weeks. During this time, the plants are tended and their response to the individual treatments is evaluated. Herbicide injury evaluations are taken at 2 and 3 weeks after treatment. Plant injury is rated on a scale of 0 to 9, 0 being no injury and 9 being complete death. Tolerance to HPPD-inhibiting herbicides can also be assessed in Arabidopsis. In this case transgenic Arabidopsis thaliana plants are assayed for improved tolerance to HPPD-inhibiting herbicides in 48-well plates. Seeds are surface sterilized by stirring for 5 min in ethanol+water (70+30 by volume), rinsing one time with ethanol+water (70+30 by volume) and two times with a sterile, deionized water. The seeds are resuspended in 0.1% agar dissolved in water (w/v). Four to five seeds per well are plated on solid nutrient medium consisting of half-strength Murashige Skoog nutrient solution, pH 5.8 (Murashige and Skoog (1962) Physiologia Plantarum 15: 473-497). Compounds are dissolved in dimethylsulfoxid (DMSO) and added to the medium prior solidification (final DMSO concentration 0.1%). Multi well plates are incubated in a growth chamber at 22° C., 75% relative humidity and 110 μmol Phot*m-2*s-1 with 14:10 h light:dark photoperiod. Seven to ten days after seeding growth inhibition is evaluated by comparison to wild-type plants. Tolerance factor is calculated by dividing the plant growth IC50 value of transgenic plants containing a HPPD and/or HST sequence by that of wild-type plants.

[4] = tested on: Arabidopsis overexpression line AtHPPD (Seq ID: 53) M335H, P336G, E363Q; assay: as above; format: in vivo, Arabidopsis thaliana; conditions: plant growth IC50 of transgenic / wild-type plants
Experimental: as §1, §2

[5] = tested on: Arabidopsis overexpression line HvHPPD (SEQ ID: 2) L320H, P321A; assay: as above; format: in vivo, Arabidopsis thaliana; conditions: plant growth IC50 of transgenic / wild-type plants
Experimental: as §1, §2

[6] = tested on: Arabidopsis overexpression line HvHPPD (SEQ ID: 2); assay: as above; format: in vivo, Arabidopsis thaliana; conditions: plant growth IC50 of transgenic / wild-type plants
Experimental: as §1, §2

[7] = tested on: Arabidopsis overexpression line Picrophilus HPPD; assay: as above; format: in vivo, Arabidopsis thaliana; conditions: plant growth IC50 of transgenic / wild-type plants
Experimental: as §1, §2

T1 sequence (O48604 whole entry R146V/R147D/R148G/A164G/L320Q): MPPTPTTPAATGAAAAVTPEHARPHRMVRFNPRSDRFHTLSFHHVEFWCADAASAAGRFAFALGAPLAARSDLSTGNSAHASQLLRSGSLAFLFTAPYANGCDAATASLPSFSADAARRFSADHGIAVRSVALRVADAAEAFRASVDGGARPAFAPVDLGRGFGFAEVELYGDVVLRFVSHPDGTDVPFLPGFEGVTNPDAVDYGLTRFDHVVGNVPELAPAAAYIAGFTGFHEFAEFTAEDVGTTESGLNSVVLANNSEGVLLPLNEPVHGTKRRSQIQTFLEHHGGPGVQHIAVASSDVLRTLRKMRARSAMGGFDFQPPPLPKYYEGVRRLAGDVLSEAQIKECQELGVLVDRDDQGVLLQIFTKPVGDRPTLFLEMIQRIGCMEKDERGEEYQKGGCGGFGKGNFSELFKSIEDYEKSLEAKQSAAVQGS

Row | SMILES | TI Inhibitor 1 (normalized tolerance index) [1] | Tolerance factor towards Inhibitor 1 [2] | Tolerance factor towards Inhibitor 1 [3] | Tolerance factor towards Inhibitor 1 [4] | Tolerance factor towards Inhibitor 1 [5] | Tolerance factor towards Inhibitor 1 [6] | Tolerance factor towards Inhibitor 1 [7] | TI Inhibitor 2 (normalized tolerance index) [1] | Tolerance factor towards Inhibitor 2 [2] | Tolerance factor towards Inhibitor 2 [3] | Tolerance factor towards Inhibitor 2 [4] | Tolerance factor towards Inhibitor 2 [5] | Tolerance factor towards Inhibitor 2 [6] | Tolerance factor towards Inhibitor 2 [7]
1 | COc1no[nH]/c1=N/C(=O)c1ccc2c(c1Cl)S(=O)(=O)CCC2(C)C [Inhibitor 1, (NE)-8-chloro-N-(4-methoxy-1,2,5-oxadiazol-3-ylidene)-4,4-dimethyl-1,1-dioxo-2,3-dihydrothiochromene-7-carboxamide] | 0.1 | 6.4 | 37.5 | 15.8 | 85 | 76 | 4.5 | – | – | – | – | – | – | –
2 | Cc1c(C(=O)Nc2nnnn2C)ccc2c1C(=O)C(C)(C)CS2(=O)=O [Inhibitor 2, 3,3,5-trimethyl-N-(1-methyltetrazol-5-yl)-1,1,4-trioxo-2H-thiochromene-6-carboxamide] | – | – | – | – | – | – | – | 1.4 | 3 | 60.8 | 60.8 | 7.9 | 10.2 | 2.6

— patent US20160102317A1, “PLANTS HAVING INCREASED TOLERANCE TO HERBICIDES” (BASF SE, priority 2013, published 2016)
